From publication PMC10892423 (Pharmaceutics, 2024)

Legend:
[1] = system: efflux pump of PA-038blaNDM; test: Inhibition of efflux pumps: EtBr accumulation/efflux; assay type: cell-based, Pseudomonas aeruginosa; conditions: 8 mg/L of compound
Description: The accumulation of EtBr inside the NDM-producing (PA-038blaNDM) P. aeruginosa clinical isolates was monitored as previously described. Briefly, the P. aeruginosa strain was grown in 5 mL of LB medium until it reached the mid-log phase, and the bacteria were centrifuged at 3500 rpm for 15 min. The resulting pellet was washed twice with an equal volume of PBS. The concentration of the bacterial suspension was adjusted (OD600 = 0.3) and added to each well of a flat-bottomed 96-well black plate ([…]). After the addition of glucose (4 µL) to the cellular suspension at a final concentration of 0.4% (w/v), 4 µL of the title compound or positive control CCCP was added to the plate. Finally, EtBr (10 µL) was also added to each well at a final concentration of 1 µg/mL, and the plate was incubated at 37 °C for 60 min, during which time fluorescence emission from EtBr was recorded (λex 480 nm/λem 630 nm) with a 2-min interval, using a Cytation 5 imaging multi-mode reader (BioTek Instruments, Inc., Winooski, VT, USA).

[2] = system: MBL-producing P. aeruginosa clinical isolates; test: Broth microdilution checkerboard synergy assay (MIC of ATM in combination); assay type: cell-based, Pseudomonas aeruginosa
[3] = target: T1, AmpC (Escherichia coli, UniProt P00811); test: β-lactamase inhibition, nitrocefin hydrolysis; assay type: biochemical
T1 construct: made in house
Source text: (§1) Recombinant AmpC from Escherichia coli was produced according to a previously reported protocol. KPC-2 and NDM-1 […] were purchased from LifeSpan Biosciences, Inc. (Lynnwood, WA, USA) (LS-G26598) and RayBiotech, Inc. (Peachtree Corners, GA, USA) (230-00554), respectively. Genes encoding OXA-48 (residues 23–265) and VIM-2 (residues 27–266) were custom-synthesized (Bioneer Inc., Seoul, Republic of Korea) and expressed as previously described. The β-lactamase inhibitory activity of the title compounds was then determined according to the previously reported methods. Briefly, equal volumes (100 μL) of the title compounds (70–0.1 μM in PBS) and diluted enzyme stock were mixed (final concentration 2% of DMSO in 200 μL) in 96-well plates, which were then incubated at 37 °C for 20 min. The incubated mixture was added to each well containing substrates (nitrocefin for AmpC, KPC-2, OXA-48, and VIM-2; and imipenem for NDM-1) of final concentrations of 70 μM for nitrocefin and 100 μM for imipenem. Substrate hydrolysis was monitored at 486 nm (nitrocefin) or 300 nm (imipenem) for 15 min, using a Cytation 5 imaging multimode reader (BioTek Instruments Inc., Winooski, VT, USA). At the plateau level of hydrolysis, the corresponding rates of hydrolysis were compared to those obtained without inhibitors (100%) to determine the percentage of enzyme inhibition at each concentration of the title compounds. The IC50 values of the compounds were derived from sigmoidal dose–response curves, using GraphPad Prism 5 (GraphPad Software, Boston, MA, USA).

[4] = target: T2, KPC-2 (Klebsiella pneumoniae, UniProt Q9F663); test: β-lactamase inhibition, nitrocefin hydrolysis; assay type: biochemical; conditions: nitrocefin substrate; read-out: β-Lactamases, IC50 KPC-2
T2 construct: purchased LifeSpan Biosciences, Inc. LS-G26598
Source text: as §1

[5] = target: T3, OXA-48 (Klebsiella pneumoniae, UniProt Q6XEC0); test: β-lactamase inhibition, nitrocefin hydrolysis; assay type: biochemical; conditions: nitrocefin substrate; read-out: β-Lactamases, IC50 OXA-48
T3 construct: Genes encoding OXA-48 (residues 23–265) and VIM-2 (residues 27–266) were custom-synthesized; made in house
Source text: as §1

[6] = target: T4, VIM-2 (Escherichia coli, UniProt Q5U7L7); test: β-lactamase inhibition, nitrocefin hydrolysis; assay type: biochemical; conditions: nitrocefin substrate; read-out: β-Lactamases, IC50 VIM-2
T4 construct: Genes encoding OXA-48 (residues 23–265) and VIM-2 (residues 27–266) were custom-synthesized; made in house
Source text: as §1

[7] = target: T5, NDM-1 (Klebsiella pneumoniae, UniProt C7C422); test: β-lactamase inhibition, imipenem hydrolysis; assay type: biochemical; conditions: imipenem substrate; read-out: β-Lactamases, IC50 NDM-1
T5 construct: purchased RayBiotech, Inc. 230-00554
Source text: as §1

[8] = system: ESBLs; parameters: method as in PMID 32843653; conditions: cited from earlier work
[9] = system: human liver (HepG2) cell line; test: HepG2 cell viability; assay type: cell-based; conditions: up to 64 mg/L, 24 h exposure
Description: Concentration of 27 (mg/L)
Figure S1. Cell viability of human hepatoma HepG2 cells presented as percentage of
control after 24 h exposure to different concentrations of 27. The data represent the
average values of three experiments (± SD).

T1 sequence (P00811 20-377): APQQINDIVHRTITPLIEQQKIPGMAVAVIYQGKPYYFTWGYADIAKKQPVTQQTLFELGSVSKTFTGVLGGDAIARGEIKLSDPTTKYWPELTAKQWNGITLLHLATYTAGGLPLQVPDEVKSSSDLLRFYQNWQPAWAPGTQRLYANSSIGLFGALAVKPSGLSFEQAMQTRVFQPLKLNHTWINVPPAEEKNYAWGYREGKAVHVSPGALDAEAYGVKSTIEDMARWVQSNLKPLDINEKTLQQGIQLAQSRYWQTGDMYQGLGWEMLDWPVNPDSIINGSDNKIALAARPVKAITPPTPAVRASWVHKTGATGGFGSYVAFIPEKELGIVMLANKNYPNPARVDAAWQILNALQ
T3 sequence (Q6XEC0 23-265 limits assumed): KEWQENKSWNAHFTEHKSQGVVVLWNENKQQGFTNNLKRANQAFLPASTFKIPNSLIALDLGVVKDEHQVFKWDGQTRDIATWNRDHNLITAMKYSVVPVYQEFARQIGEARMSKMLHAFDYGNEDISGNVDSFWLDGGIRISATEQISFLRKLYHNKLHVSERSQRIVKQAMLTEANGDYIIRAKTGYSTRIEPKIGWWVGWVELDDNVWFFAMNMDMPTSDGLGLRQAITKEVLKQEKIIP
T2 sequence (Q9F663 25-293, looked up): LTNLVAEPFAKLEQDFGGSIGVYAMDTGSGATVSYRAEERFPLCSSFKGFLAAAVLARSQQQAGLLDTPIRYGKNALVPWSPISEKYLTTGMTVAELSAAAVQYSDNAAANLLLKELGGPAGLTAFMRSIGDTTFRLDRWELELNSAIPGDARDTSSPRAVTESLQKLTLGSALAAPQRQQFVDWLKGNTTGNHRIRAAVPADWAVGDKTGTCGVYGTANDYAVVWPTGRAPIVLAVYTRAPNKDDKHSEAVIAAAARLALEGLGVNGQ
T5 sequence (C7C422 29-270, looked up, species assumed): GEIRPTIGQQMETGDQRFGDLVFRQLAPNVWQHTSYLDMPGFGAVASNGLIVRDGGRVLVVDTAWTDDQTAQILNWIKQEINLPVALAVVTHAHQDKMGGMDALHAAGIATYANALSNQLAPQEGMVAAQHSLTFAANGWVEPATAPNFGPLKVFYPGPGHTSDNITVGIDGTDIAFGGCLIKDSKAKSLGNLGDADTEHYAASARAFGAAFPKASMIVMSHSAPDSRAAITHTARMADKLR

| SMILES | EtBr fluorescence (accumulation) [1] | concentration at which ATM-potentiating activity was observed ([2]; four representative MBL-producing P. aeruginosa strains (Table 2)) [mg/L] | IC50 [3] [µM] | IC50 [4] [µM] | IC50 [5] [µM] | IC50 [6] [µM] | IC50 [7] [µM] | inhibition of ESBLs [8] | strains with more than a four-fold MIC reduction (synergistic effect) of ATM ([2]; 21 MBL-producing P. aeruginosa clinical strains, combination with ATM) | MIC ([2]; Pseudomonas aeruginosa, MBL-producing P. aeruginosa clinical isolates, no activity up to this concentration, read-out: antimicrobial activity (MIC) of the compound alone) [µg/mL] | cytotoxic effects [9] |
| --- | --- | --- | --- | --- | --- | --- | --- | --- | --- | --- | --- |
| N#CC(C#N)=NNc1cccc(Cl)c1 [CCCP, carbonyl cyanide 3-chlorophenylhydrazone] | became stronger | – | – | – | – | – | – | – | – | – | – |
| O=c1c(O)c(-c2ccc(F)c(F)c2)oc2cc(O)cc(O)c12 [Compound 1, 3′,4′-difluoroquercetin] | as potent as CCCP | 8 to 16 | > 50 | > 50 | > 100 | > 100 | > 50 | not to inhibit ESBLs | – | – | – |
| CC(C)(C)CCOc1c(-c2ccc(F)c(F)c2)oc2cc(O)cc(O)c2c1=O [Compound 23] | significant increase in EtBr accumulation | – | 18.9 | 17.3 | 14.8 | 11.9 | 11.4 | – | – | – | – |
| O=c1c(OCCC2CCCC2)c(-c2ccc(F)c(F)c2)oc2cc(O)cc(O)c12 [Compound 26] | significant increase in EtBr accumulation | – | 21 | 11.5 | 8 | 9 | 15.9 | – | – | – | – |
| O=c1c(OCCC2CCCCC2)c(-c2ccc(F)c(F)c2)oc2cc(O)cc(O)c12 [Compound 27] | significant increase in EtBr accumulation | – | 15.3 | 11.3 | 6.3 | 4.4 | 10.1 | – | 19 out of 21 | > 512 | no cytotoxic effects |
